Active and inactive are the calls of the source. No cut-off for these calls is given here.
Tests used:
[1] = tested on: Kluyveromyces marxianus; test: Antifungal activity against Candida kefyr ATCC 46764 after 14 to 18 hrs; format: functional, organism-based
[2] = species on record: Homo sapiens; test: Effect on […] level in plasma of transplant patient by MVista microbiological assay; format: functional
[3] = tested on: Kluyveromyces marxianus; test: Antifungal activity against Candida kefyr ATCC 46764 at 0.5 ug/ml after 14 to 18 hrs; format: functional; conditions: read-out: IZ
[4] = tested on: Kluyveromyces marxianus; test: Antifungal activity against Candida kefyr ATCC 46764 at 1.5 ug/ml after 14 to 18 hrs; format: functional; conditions: read-out: IZ
[5] = tested on: Kluyveromyces marxianus; test: Antifungal activity against Candida kefyr ATCC 46764 at 3 ug/ml after 14 to 18 hrs; format: functional; conditions: read-out: IZ

C=CC[C@@H]1/C=C(\C)C[C@H](C)C[C@H](OC)[C@H]2O[C@@](O)(C(=O)C(=O)N3CCCC[C@H]3C(=O)O[C@H](/C(C)=C/[C@@H]3CC[C@@H](O)[C@H](OC)C3)[C@H](C)[C@@H](O)CC1=O)[C@H](C)C[C@@H]2OC [TACROLIMUS ANHYDROUS]
Activity [1]: inactive
Activity [2]: 4.2 ng/mL

CO[C@H]1C[C@@H]2CC[C@@H](C)[C@@](O)(O2)C(=O)C(=O)N2CCCC[C@H]2C(=O)O[C@H]([C@H](C)C[C@@H]2CC[C@@H](O)[C@H](OC)C2)CC(=O)[C@H](C)/C=C(\C)[C@@H](O)[C@@H](OC)C(=O)[C@H](C)C[C@H](C)/C=C/C=C/C=C/1C [SIROLIMUS]
Activity [2]: 7.1 ng/mL

C/C=C/C[C@@H](C)[C@@H](O)[C@H]1C(=O)N[C@@H](CC)C(=O)N(C)CC(=O)N(C)[C@@H](CC(C)C)C(=O)N[C@@H](C(C)C)C(=O)N(C)[C@@H](CC(C)C)C(=O)N[C@@H](C)C(=O)N[C@H](C)C(=O)N(C)[C@@H](CC(C)C)C(=O)N(C)[C@@H](CC(C)C)C(=O)N(C)[C@@H](C(C)C)C(=O)N1C [CYCLOSPORINE]
zone of inhibition at 0.5 µg/mL [3]: 15.5 mm
zone of inhibition at 1.5 µg/mL [4]: 20.5 mm
zone of inhibition at 3 µg/mL [5]: 23.3 mm

CC[C@@H]([C@H](C)O)n1ncn(-c2ccc(N3CCN(c4ccc(OC[C@@H]5CO[C@@](Cn6cncn6)(c6ccc(F)cc6F)C5)cc4)CC3)cc2)c1=O [POSACONAZOLE]
zone of inhibition at 0.5 µg/mL [3]: 16.5 mm
zone of inhibition at 1.5 µg/mL [4]: 20.6 mm
zone of inhibition at 3 µg/mL [5]: 23.2 mm
